According to ChEMBL document CHEMBL1201862, “PubChem BioAssay data set” (2004):
Active and inactive are the calls of the source.

How the values were obtained:
[1] = biological target: T1, Voltage-gated N-type calcium channel alpha-1B subunit/Amyloid beta A4 precursor protein-binding family A member 1 (Homo sapiens, UniProt Q00975+Q02410); format: protein assay
[2] = biological target: T1, Voltage-gated N-type calcium channel alpha-1B subunit/Amyloid beta A4 precursor protein-binding family A member 1; format: protein assay; remark: listed apart in the source
[3] = cells; format: functional
[4] = biological target: Fatty acid synthase (Homo sapiens, UniProt P49327); assay: FAS thioesterase domain inhibitors, dose response, biochemical, kinetic fluorescence intensity (AID 624326); format: functional;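 note: rate of fluorescence rise from hydrolysis of a fluorogenic O-methyl fluorescein ester substrate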
[5] = biological target: T2, fMet-Leu-Phe receptor (Homo sapiens, UniProt P21462); assay: FPR ligands, dose response (AID 519); format: functional
T2 sequence (P21462 whole entry): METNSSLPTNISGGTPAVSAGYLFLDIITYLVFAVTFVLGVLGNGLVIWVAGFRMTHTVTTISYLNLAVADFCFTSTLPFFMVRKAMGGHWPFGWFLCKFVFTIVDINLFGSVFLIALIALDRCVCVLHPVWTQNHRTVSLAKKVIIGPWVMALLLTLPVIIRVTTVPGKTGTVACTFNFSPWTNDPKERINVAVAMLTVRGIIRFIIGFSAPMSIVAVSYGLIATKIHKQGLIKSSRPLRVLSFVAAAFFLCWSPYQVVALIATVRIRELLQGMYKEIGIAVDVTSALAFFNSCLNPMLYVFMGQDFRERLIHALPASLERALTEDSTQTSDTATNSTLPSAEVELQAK

[6] = biological target: T3, Short transient receptor potential channel 4 (Mus musculus, UniProt Q9QUQ5); assay: mouse TRPC4 channel inhibitors, dose response, cell-based, HEK293 TRPC4/mu-opioid, Fluo-4 calcium (AID 434942); format: functional;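 note: potency of inhibitors blocking the TRPC4 calcium response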
T3 sequence (Q9QUQ5 whole entry): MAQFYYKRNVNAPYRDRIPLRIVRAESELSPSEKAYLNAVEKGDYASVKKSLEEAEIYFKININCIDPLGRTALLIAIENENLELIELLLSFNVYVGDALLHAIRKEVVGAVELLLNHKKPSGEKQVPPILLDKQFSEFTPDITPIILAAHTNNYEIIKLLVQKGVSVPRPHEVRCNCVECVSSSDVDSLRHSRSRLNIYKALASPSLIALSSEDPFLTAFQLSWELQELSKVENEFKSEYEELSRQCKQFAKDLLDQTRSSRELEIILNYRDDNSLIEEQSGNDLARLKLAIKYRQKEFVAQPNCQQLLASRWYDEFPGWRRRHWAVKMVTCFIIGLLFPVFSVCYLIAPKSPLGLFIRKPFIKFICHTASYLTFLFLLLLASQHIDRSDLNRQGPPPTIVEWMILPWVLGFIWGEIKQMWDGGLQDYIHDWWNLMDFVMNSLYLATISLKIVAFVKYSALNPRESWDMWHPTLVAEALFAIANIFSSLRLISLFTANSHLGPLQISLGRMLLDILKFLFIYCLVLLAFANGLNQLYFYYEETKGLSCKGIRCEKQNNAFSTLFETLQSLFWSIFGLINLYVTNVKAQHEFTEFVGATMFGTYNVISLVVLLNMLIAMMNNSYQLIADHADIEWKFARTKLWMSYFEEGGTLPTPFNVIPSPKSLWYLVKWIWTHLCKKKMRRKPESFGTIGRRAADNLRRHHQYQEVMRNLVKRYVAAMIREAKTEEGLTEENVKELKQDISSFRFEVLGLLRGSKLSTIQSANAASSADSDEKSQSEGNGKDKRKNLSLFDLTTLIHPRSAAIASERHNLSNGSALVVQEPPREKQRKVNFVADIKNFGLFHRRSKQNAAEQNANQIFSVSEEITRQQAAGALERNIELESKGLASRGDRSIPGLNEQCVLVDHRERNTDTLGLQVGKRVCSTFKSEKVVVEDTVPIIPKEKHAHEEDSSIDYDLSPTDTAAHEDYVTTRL

[7] = biological target: T4, Heat shock factor protein 1 (Mus musculus, UniProt P38532); assay: inhibition of MG132-induced HSE-luciferase signal, confirmation, cell-based, NIH3T3, luminescence, dose retest (AID 2382); format: functional;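 note: NIH3T3 fibroblasts with HSF1-driven luciferase reporter stressed by proteasome inhibitor MG132; luminescence from HSF1-driven luciferase expression after 8 hours of MG132 stress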
T4 sequence (P38532 whole entry): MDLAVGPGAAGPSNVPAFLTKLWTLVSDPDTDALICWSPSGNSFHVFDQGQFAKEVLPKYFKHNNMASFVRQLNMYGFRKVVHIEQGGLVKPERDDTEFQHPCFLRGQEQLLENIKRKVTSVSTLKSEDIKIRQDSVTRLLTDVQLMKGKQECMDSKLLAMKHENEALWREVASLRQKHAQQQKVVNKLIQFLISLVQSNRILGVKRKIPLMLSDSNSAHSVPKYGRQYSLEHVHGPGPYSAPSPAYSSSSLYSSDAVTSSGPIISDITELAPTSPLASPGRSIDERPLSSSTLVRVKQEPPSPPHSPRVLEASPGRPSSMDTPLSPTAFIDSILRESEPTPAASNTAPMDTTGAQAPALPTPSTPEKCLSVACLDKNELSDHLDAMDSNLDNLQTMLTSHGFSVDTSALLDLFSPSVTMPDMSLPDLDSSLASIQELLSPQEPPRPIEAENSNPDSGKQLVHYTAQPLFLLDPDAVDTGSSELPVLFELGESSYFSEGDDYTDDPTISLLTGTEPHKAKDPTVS

[8] = control 3'UTR Renilla luciferase suppression, dose response, counter-screen for Shn3 inhibitor project, cell-based, Clone20-Shn3RL, cherry-picked (AID 624133); format: functional
[9] = HepG2 cell cytotoxicity, dose response, cytotoxicity control for Shn3 inhibitor project, CellTiter-Glo, cherry-picked (AID 624134); format: functional, cell-based
[10] = system: INS1; assay: beta cell apoptosis inhibitors, cytokine rescue, dose response, luminescence, retest (AID 449756); format: functional, cell-based; settings: Rattus norvegicus;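 note: cell death triggered by IL-1 beta plus TNF-alpha plus IFN-gamma mixture; protective hits raise ATP signal compared with cytokine alone wells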
[11] = cytotoxicity in HEK-293T cells, dose response, cytotoxicity control for TCR NF-kB inhibitor project, luminescence, T-cell screen hits (AID 489026); format: functional, cell-based;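 note: cells exposed to compound about 14 hours before the viability readout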
[12] = Shn3 3'UTR reporter inhibitors, dose response, cell-based, Clone20 osteoblasts, firefly luciferase, cherry-picked (AID 624132); format: functional;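 note: firefly luciferase luminescence from reporter carrying the Shn3 3'UTR in osteoblasts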
[13] = intracellular Trypanosoma cruzi inhibitors in host cells – cell-based, plate reader, cherry-pick samples, set 3, dose response (AID 651818); format: functional;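 note: compounds incubated with infected cells for about four days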
[14] = cells; format: functional, cell-based
[15] = inhibitors of firefly luciferase expression or activity, dose response, H4 neuroglioma cells, luminescence (AID 1990); format: functional, cell-based
[16] = cells; format: functional, cell-based; remark: listed apart in the source
[17] = system: Streptococcus; assay: Group A Streptococcus viability loss, dose response, counter-screen for streptokinase expression inhibitor project, luminescence, BacTiterGlo (AID 1915); format: functional, organism-based;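 note: potency for reduction of bacterial viability or growth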
[18] = system: Streptococcus sp. 'group A'; assay: growth inhibition of control SK(-) GAS strain, dose response, counter-screen for streptokinase expression inhibitor project, luminescence, kanamycin, BacTiterGlo, confirmation (AID 1900); format: functional, organism-based
[19] = biological target: Induced myeloid leukemia cell differentiation protein Mcl-1 (Homo sapiens, UniProt Q07820); format: functional
Sequence of Induced myeloid leukemia cell differentiation protein Mcl-1 (Q07820 whole entry): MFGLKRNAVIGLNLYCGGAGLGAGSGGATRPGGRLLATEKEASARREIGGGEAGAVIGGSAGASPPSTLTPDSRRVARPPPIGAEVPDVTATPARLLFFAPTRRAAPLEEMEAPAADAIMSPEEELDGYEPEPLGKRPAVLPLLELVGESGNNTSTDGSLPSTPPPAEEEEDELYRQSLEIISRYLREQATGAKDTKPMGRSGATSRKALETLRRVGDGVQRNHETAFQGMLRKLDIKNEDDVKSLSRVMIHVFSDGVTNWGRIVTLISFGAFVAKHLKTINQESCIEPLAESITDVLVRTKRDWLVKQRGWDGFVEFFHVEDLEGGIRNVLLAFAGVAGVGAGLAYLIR

[20] = inhibitors of SNCA 5'UTR-driven reporter translation, confirmation, H4 neuroglioma cells, luminescence (AID 1988); format: functional, cell-based
[21] = Luminescence Cell-Based Dose Response HTS to Identify Inhibitors of 5'UTR Stem-Loop Driven Prion Protein mRNA Translation in H4 Neuroglioblastoma Cells. [Related pubchem assays: 1827 (Project Summary), 1813 (Primary HTS)]; format: functional
[22] = P. falciparum Dd2 growth inhibitors, dose response, SYBR Green, cherry-picked samples (AID 1159567); format: functional, cell-based
[23] = system: P388; assay: cells; format: functional; settings: Mus musculus
[24] = system: SN12K1; assay: cells; format: functional; settings: Homo sapiens
[25] = system: P388/ADR; assay: cells; format: functional; settings: Mus musculus
[26] = biological target: Large T antigen (Simian virus 40, UniProt P03070); format: functional, Betapolyomavirus macacae;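 note: Confirmatory-stage PubChem screen for compounds that inhibit SV40 T antigen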
Sequence of Large T antigen (P03070 whole entry): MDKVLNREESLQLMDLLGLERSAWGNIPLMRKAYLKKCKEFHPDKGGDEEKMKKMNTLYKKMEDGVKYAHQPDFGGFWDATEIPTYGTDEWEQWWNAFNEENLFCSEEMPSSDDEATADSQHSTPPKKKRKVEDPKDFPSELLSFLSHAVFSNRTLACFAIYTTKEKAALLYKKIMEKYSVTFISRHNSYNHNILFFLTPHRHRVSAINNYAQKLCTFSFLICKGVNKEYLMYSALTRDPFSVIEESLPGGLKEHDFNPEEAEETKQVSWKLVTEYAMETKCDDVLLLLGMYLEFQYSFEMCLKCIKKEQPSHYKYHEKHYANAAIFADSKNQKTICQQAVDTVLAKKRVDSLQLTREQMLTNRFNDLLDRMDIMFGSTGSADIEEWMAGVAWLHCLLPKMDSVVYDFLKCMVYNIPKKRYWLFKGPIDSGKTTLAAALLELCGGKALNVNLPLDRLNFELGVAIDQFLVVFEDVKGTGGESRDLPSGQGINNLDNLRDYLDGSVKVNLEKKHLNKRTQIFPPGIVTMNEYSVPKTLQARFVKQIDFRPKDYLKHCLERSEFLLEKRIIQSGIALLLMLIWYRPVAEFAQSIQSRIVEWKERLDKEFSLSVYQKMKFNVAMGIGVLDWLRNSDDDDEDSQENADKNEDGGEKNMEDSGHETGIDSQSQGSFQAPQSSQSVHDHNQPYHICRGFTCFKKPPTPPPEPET

T1 sequence (Q00975 whole entry): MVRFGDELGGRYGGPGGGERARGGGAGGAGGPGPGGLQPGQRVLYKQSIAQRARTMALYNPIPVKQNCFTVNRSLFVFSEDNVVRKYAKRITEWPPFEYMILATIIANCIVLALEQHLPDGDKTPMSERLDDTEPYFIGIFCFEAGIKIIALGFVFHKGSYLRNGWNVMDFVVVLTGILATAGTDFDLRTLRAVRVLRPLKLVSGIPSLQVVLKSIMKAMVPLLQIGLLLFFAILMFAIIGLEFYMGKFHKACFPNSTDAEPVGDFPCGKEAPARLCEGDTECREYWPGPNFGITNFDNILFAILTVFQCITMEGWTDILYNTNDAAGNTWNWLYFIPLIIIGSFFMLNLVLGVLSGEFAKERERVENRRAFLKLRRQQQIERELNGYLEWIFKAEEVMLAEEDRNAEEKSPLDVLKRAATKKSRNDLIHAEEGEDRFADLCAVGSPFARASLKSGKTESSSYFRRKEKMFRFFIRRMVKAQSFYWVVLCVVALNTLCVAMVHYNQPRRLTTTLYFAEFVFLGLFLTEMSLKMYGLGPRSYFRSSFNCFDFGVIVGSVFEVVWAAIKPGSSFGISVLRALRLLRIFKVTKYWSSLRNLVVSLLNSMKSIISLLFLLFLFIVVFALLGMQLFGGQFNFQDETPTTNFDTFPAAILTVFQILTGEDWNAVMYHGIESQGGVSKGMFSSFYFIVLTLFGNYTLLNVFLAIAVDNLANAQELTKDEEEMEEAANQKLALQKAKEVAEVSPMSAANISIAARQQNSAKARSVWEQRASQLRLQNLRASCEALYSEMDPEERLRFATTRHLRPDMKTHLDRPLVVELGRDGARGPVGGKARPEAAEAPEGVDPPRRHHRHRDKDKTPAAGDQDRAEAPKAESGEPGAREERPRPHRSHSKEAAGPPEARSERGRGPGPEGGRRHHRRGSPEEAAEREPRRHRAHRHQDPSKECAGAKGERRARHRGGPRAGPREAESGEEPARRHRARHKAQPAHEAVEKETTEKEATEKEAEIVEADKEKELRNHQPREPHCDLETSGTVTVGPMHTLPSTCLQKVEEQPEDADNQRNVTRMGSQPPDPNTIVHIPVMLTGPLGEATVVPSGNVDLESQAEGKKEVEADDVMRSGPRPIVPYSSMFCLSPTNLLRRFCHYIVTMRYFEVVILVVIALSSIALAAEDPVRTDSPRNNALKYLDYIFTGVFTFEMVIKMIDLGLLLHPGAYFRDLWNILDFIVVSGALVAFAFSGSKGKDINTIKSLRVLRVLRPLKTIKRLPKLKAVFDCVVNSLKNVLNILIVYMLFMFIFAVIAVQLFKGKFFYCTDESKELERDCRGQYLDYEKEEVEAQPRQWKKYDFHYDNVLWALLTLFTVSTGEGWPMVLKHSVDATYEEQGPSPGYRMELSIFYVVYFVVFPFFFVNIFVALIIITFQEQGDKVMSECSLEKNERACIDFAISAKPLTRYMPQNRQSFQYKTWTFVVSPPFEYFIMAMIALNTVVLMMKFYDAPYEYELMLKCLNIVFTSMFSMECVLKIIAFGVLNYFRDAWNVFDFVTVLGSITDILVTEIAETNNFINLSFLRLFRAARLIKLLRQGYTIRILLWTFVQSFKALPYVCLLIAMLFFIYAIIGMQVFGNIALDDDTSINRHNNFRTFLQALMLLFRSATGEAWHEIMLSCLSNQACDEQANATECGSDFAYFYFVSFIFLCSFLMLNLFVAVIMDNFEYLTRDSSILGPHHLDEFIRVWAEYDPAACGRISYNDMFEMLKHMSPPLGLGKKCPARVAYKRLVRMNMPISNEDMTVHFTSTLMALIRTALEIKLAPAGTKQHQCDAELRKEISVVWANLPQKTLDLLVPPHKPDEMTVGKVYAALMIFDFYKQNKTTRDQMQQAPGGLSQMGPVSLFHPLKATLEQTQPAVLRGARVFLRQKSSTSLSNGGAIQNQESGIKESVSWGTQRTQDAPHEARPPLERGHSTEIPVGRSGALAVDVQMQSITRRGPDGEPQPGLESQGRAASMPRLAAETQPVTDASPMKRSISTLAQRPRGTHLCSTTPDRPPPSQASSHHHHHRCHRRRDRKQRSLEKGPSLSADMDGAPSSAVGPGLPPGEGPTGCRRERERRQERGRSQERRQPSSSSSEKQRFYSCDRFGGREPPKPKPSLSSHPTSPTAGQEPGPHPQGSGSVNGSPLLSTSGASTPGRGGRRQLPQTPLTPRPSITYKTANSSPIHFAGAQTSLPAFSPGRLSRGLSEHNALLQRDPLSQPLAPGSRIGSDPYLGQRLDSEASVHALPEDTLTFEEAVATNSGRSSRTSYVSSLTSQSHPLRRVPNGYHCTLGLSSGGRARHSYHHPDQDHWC
T1 sequence (Q02410 whole entry): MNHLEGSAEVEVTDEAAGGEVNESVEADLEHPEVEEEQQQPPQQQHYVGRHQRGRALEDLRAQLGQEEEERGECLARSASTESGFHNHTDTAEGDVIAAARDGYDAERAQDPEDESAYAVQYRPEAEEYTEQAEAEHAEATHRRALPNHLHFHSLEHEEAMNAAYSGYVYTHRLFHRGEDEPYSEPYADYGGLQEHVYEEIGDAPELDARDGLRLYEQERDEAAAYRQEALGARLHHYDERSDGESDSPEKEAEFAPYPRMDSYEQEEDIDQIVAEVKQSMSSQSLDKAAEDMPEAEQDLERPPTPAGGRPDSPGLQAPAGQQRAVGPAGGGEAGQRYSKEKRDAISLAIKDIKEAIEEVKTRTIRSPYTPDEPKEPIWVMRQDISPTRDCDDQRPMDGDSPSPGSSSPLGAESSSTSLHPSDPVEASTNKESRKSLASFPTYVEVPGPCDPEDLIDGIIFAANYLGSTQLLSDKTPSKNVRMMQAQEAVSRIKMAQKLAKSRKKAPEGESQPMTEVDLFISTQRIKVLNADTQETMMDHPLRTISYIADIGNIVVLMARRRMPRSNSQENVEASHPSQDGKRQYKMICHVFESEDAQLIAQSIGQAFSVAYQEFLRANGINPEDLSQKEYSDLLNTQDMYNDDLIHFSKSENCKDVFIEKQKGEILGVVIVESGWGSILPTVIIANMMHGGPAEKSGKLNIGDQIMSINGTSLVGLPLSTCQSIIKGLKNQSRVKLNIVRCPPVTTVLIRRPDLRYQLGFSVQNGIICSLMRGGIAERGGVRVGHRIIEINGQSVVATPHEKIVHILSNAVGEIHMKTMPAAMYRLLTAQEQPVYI

Structure (SMILES): Cc1cccc(-n2cnc3c(c2=O)c2nc4ccccc4nc2n3Cc2ccco2)c1
- IC50 [1]: 2.16 µM (active)
- IC50 [2]: 0.871 µM (active)

Structure (SMILES): CC(C)c1ccc(OCC(=O)NNC(=O)c2cnccn2)cc1
- IC50 [3]: 11.9 µM (active)

Structure (SMILES): COc1ccc(/C=C(\NC(=O)c2ccc([N+](=O)[O-])cc2)C(=O)NCCN2CCOCC2)cc1
- IC50 [4]: 5.27 µM (active)

Structure (SMILES): COc1ccc(NC(=O)C2C3CCC(C3)C2C(=O)O)cc1OC (stereo not drawn)
- Ki [5]: > 66.7 µM (inactive)

Structure (SMILES): CC12CN3CC(C)(CN(C1)C3c1ccc(Cl)cc1Cl)C2O (stereo not drawn)
- EC50 [6]: 4.22 µM (active)

Structure (SMILES): CCOC(=O)c1oc2cc(O)ccc2c(=O)c1-c1ccccc1OC
- Ki [5]: > 66.7 µM (inactive)

Structure (SMILES): CCCS(=O)(=O)N1CCCC(C(=O)N2CCC(Cc3ccccc3)CC2)C1 (stereo not drawn)
- EC50 [7]: > 195 µM (not active)
- Ki [5]: > 66.7 µM (inactive)

Structure (SMILES): CCN(CC)S(=O)(=O)c1cc(NC(=O)CNc2cccc(S(=O)(=O)N3CCCC3)c2)ccc1C
- AC50 [8]: > 70 µM (inactive)
- AC50 [9]: 1.2 µM (active)
- AC50 [10]: 5.23 µM (active)
- IC50 [11]: > 80 µM (inactive)
- AC50 [12]: 0.648 µM (active)

Structure (SMILES): COc1ccc2cc3cc(C(=O)N4CC(C)CC(C)C4)oc3nc2c1 (stereo not drawn)
- IC50 [4]: 3.88 µM (active)

Structure (SMILES): CCOC(=O)Cc1cc(O)n2nc(C)c(-c3ccc(OC)cc3)c2n1
- Ki [5]: 18.3 µM (inactive)

Structure (SMILES): N#CC1=C(N)N=C(S)C(C(N)=O)C1c1ccc(Cl)cc1Cl (stereo not drawn)
- IC50 [1]: 13.3 µM (active)
- IC50 [2]: > 50 µM (inactive)

Structure (SMILES): CN1CCN(CCCNC(=O)Nc2cccc3ccccc23)CC1
- Ki [5]: > 66.7 µM (inactive)

Structure (SMILES): COc1ccc(C)cc1NC1=NC(C)(C)CS1
- EC50 [6]: 7.5 µM (active)

Structure (SMILES): O=C(c1ccc(Cl)cc1)N(Cc1cccs1)C1CCS(=O)(=O)C1 (stereo not drawn)
- Ki [5]: > 66.7 µM (inactive)

Structure (SMILES): O=C(N/N=C/c1ccncc1)c1ccc(NC(=O)c2ccc(Cl)cc2)cc1
- IC50 [1]: > 56.8 µM (not active)
- IC50 [2]: > 50 µM (inactive)

Structure (SMILES): C[C@H](CO)N1C[C@H](C)[C@H](CN(C)Cc2ccc(C(=O)Nc3ccccc3N)cc2)Oc2ccc(NC(=O)C3CCCCC3)cc2CC1=O
- AC50 [13]: 3.41 µM (active)

Structure (SMILES): C[C@@H]1CN([C@@H](C)CO)C(=O)c2cccc(NC(=O)NC3CCCCC3)c2O[C@H]1CN(C)Cc1ccc(C(F)(F)F)cc1
- AC50 [13]: 2.86 µM (active)

Structure (SMILES): C[C@H]1CN([C@@H](C)CO)C(=O)c2cc(NC(=O)Nc3ccc4c(c3)OCO4)ccc2O[C@@H]1CN(C)Cc1ccc(Oc2ccccc2)cc1
- AC50 [13]: 4.01 µM (active)

Structure (SMILES): C[C@H](CO)N1C[C@H](C)[C@H](CN(C)Cc2ccc3c(c2)OCO3)Oc2ccc(NC(=O)NC3CCCCC3)cc2C1=O
- AC50 [13]: 1.82 µM (active)

Structure (SMILES): C[C@H]1CN([C@@H](C)CO)C(=O)c2cccc(NC(=O)Nc3ccccc3)c2O[C@@H]1CN(C)Cc1ccc(C(=O)Nc2ccccc2N)cc1
- AC50 [13]: 1.54 µM (active)

Structure (SMILES): C[C@H](CO)N1C[C@H](C)[C@H](CN(C)Cc2ccc(C(=O)Nc3ccccc3N)cc2)Oc2c(NC(=O)Nc3ccc4c(c3)OCO4)cccc2C1=O
- AC50 [13]: 5.97 µM (active)

Structure (SMILES): COc1ccc(-c2cc(C(F)(F)F)nc(N3CCN(c4ccccc4)CC3)n2)cc1OC
- Ki [5]: > 66.7 µM (inactive)

Structure (SMILES): Cc1cc(C(=O)N/N=C/c2cc(N=Nc3ccccc3)ccc2O)[nH]n1
- EC50 [14]: 11.5 µM (active)
- EC50 [15]: 13 µM (active)
- EC50 [16]: 27.9 µM (active)
- AC50 [10]: 1.22 µM (active)
- IC50 [1]: 10.9 µM (active)
- IC50 [2]: > 50 µM (inactive)
- EC50 [17]: 1.92 µM (active)
- EC50 [18]: 2.04 µM (active)
- IC50 [19]: 2.22 µM (active)
- EC50 [20]: 9.08 µM (active)
- EC50 [21]: 10.7 µM (active)

Structure (SMILES): O=C(N/N=C/C=C/c1ccccc1)c1ccncc1
- IC50 [3]: 0.48 µM (active)

Structure (SMILES): COc1ccc(C#Cc2cccc(-c3nc(C(=O)N[C@@H]4CCN(Cc5ccccc5)C4)cc4c3[C@H](CCO)N([S+]([O-])C(C)(C)C)C4)c2)cc1OC (stereo partly drawn)
- AC50 [22]: 4.45 µM (active)

Structure (SMILES): C/C=C/c1ccc2c(c1)[C@@H]1[C@@H](CCN1S(=O)(=O)c1ccccc1C)[C@H](CO)N2
- AC50 [22]: 7.49 µM (active)

Structure (SMILES): C[C@@H]1CN([C@@H](C)CO)S(=O)(=O)c2ccc(C#Cc3ccncc3)cc2O[C@H]1CN(C)S(=O)(=O)c1ccc(F)cc1
- AC50 [22]: 2.95 µM (active)

Structure (SMILES): COCC(=O)N1CC2(C1)CN(Cc1ccccc1F)[C@H](CO)c1[nH]c3cc(OC)ccc3c12
- AC50 [22]: 11.5 µM (active)

Structure (SMILES): CN(C)c1nc(N(C)C)nc(N(C)C)n1 [ALTRETAMINE]
- Ki [5]: > 66.7 µM (inactive)
- GI50 [23]: > 106 µM (inactive)
- GI50 [24]: > 150 µM (inactive)
- GI50 [25]: > 136 µM (inactive)

Structure (SMILES): Cc1cc(O)c(C=O)c2c1C(=O)Oc1c(CO)c(O)c3c(c1O2)C(O)OC3=O (stereo not drawn) [SLAZINIC ACID]
- IC50 [26]: 17.5 µM (active)
- IC50 [1]: 14.8 µM (active)
- IC50 [2]: 12.5 µM (active)
